Experimental data reported in US20230167120A1, “ARYL-FUSED ISOSELENAZOLE COMPOUND CONTAINING TETRAZINE SUBSTITUENT, SYNTHESIS METHOD THEREFOR, AND USE THEREOF” (KEAISE MEDICINE WUHAN CORP., priority 2020, published 2023).
Marks after values point to notes of the source that are not given here.

Legend:
human glioma cells (U87) = experiment: In-vitro growth inhibition, MTT method, U87; format: cell-based; settings: Glioma cell, 48 h
Procedure: (§1) The in-vitro growth inhibitory activity of compounds 1 to 8 of the present disclosure against human glioma cells (U87 and LN229), human hepatoma cells (SMMC-7721) and human pancreatic carcinoma cells (Panc1) was studied adopting the MTT method.
U87, LN229, SMMC-7721 and Panc1 cells growing at log phase were separately inoculated into a 96-well plate at a density of 5×10^4 cells/mL, 180 μL/well. […] After 48 h of action, a 5 mg/mL MTT solution (20 μL/well) was added. After the cells were incubated in a CO2 incubator for 3 to 4 h, the supernatant was carefully discarded. After the residual liquid was air-dried, acidified isopropanol (50 μL of concentrated hydrochloric acid dissolved in 500 mL of isopropanol) was added at […], and the plate was shaken on a shaker for 30 min. After the crystals were completely dissolved, absorbance OD values were measured by a microplate reader at 570 nm.
(§2) Cell viability %=(drug-treated cell OD−blank group OD)/(control cell OD−blank group OD)×100
(§3) Cell killing rate %=1−cell viability %

[1] = system: human glioma cells (LN229); experiment: In-vitro growth inhibition, MTT method, LN229; format: cell-based; settings: LN-229, 48 h
Procedure: as §1
(§4) U87, LN229, SMMC-7721 and Panc1 cells growing at log phase were separately inoculated into a 96-well plate at a density of 5×10^4 cells/mL, 180 μL/well. After the cells were attached to the wall, 20 μL of a drug liquid was added to each well, so that the final concentrations of the drug were 0 μM, 5 μM, 10 μM, 20 μM and 50 μM. After 48 h of action, a 5 mg/mL MTT solution (20 μL/well) was added. After the cells were incubated in a CO2 incubator for 3 to 4 h, the supernatant was carefully discarded. After the residual liquid was air-dried, acidified isopropanol (50 μL of concentrated hydrochloric acid dissolved in 500 mL of isopropanol) was added at […], and the plate was shaken on a shaker for 30 min. After the crystals were completely dissolved, absorbance OD values were measured by a microplate reader at 570 nm.
as §2, §3

[2] = system: human hepatoma cells (SMMC-7721); experiment: In-vitro growth inhibition, MTT method, SMMC-7721; format: cell-based; settings: 48 h
Procedure: as §1, §4, §2, §3

[3] = system: human pancreatic carcinoma cells (Panc1); experiment: In-vitro growth inhibition, MTT method, Panc1; format: cell-based; settings: PANC-1, 48 h
Procedure: as §1, §4, §2, §3

human glioma cell U87 [4] = experiment: Tumor volume inhibition rate, i.v. dosing; format: in vivo, Balb/c nude mice; settings: Mus musculus, iv, TMZ 10 mg·kg^−1, i.v.
Procedure: In addition, low-dosage 0409 (20 mg·kg^−1, i.v.) and TMZ (10 mg·kg^−1, i.v.) were synchronously used for an assay to determine the volume tumor inhibition rate.

[5] = system: U251MG human glioma cells; experiment: In-vitro anti-cancer activity screening, SRB method, U251MG; format: cell-based; settings: U-251
Procedure: (§5) Referring to the method of example 9, two tumor cell lines, U251MG and U251TR human glioma cells, were selected, and temozolomide and the compounds of the present disclosure were subjected to in-vitro anti-cancer activity screening using the SRB method.

[6] = system: U251TR human glioma cells; experiment: In-vitro anti-cancer activity screening, SRB method, U251TR; format: cell-based; settings: Glioma cell, drug-resistant strain
Procedure: as §5

human glioma cell U87 [7] = experiment: In-vivo antitumor activity, U87 tumor-bearing nude mice, i.g. dosing; set-up: species or system Balb/c nude mice; settings: temozolomide group 30 mg·kg^−1, i.g., q.d., end of the experiment; for Tumor volume: 11 days
Source text: The tumor emergence rate was 100%.
The solvent was freshly prepared when needed each day.

human glioma cell U87 [8] = experiment: Pharmacodynamic study in human glioma cell U87 subcutaneous model; format: in vivo, Balb/c nude mice; settings: compounds 20 mg/Kg, q.d.×14 days
Source text: The route of administration was intragastric administration ([…]., q.d.×14 days).

[9] = 240 h, Day 10, 20 mg·kg^−1, i.v.
[10] = 264 h, Day 11, 20 mg·kg^−1, i.v.
[11] = 288 h, Day 12, 20 mg·kg^−1, i.v.
[12] = 312 h, Day 13, 20 mg·kg^−1, i.v.
[13] = 336 h, Day 14, 20 mg·kg^−1, i.v.
[14] = 360 h, Day 15, 20 mg·kg^−1, i.v.
[15] = 384 h, Day 16, 20 mg·kg^−1, i.v.
[16] = 408 h, Day 17, 20 mg·kg^−1, i.v.
[17] = 432 h, Day 18, 20 mg·kg^−1, i.v.

Structure (SMILES) | IC50 (human glioma cells (U87)) | IC50 [1] | IC50 [2] | IC50 [3] | inhibition in vivo at 20 mg/kg (human glioma cell U87 [4]; [9]) | inhibition in vivo at 20 mg/kg (human glioma cell U87 [4]; [10]) | inhibition in vivo at 20 mg/kg (human glioma cell U87 [4]; [11]) | inhibition in vivo at 20 mg/kg (human glioma cell U87 [4]; [12]) | inhibition in vivo at 20 mg/kg (human glioma cell U87 [4]; [13]) | inhibition in vivo at 20 mg/kg (human glioma cell U87 [4]; [14]) | inhibition in vivo at 20 mg/kg (human glioma cell U87 [4]; [15]) | inhibition in vivo at 20 mg/kg (human glioma cell U87 [4]; [16]) | inhibition in vivo at 20 mg/kg (human glioma cell U87 [4]; [17]) | IC50 [5] | IC50 [6] | other results
Cn1nnc2c(C(=O)NCCn3[se]c4ccc(F)cc4c3=O)ncn2c1=O [Compound 2, 3,4-dihydro-3-methyl-4-oxo-N-(3(2H)-oxo-5-fluoro-1,2-benzisoselenazol-2-yl)-ethyl-imidazo[5,1-d]-1,2,3,5-tetrazine-8-carboxamide] | > 500 µM | 52.2 ± 10.7 µM | 16.4 ± 3.59 µM | 22.2 ± 8.78 µM | 85% | 84.6% | 82.9% | 85.8% | 86.3% | 85.8% | 84.4% | 86.7% | 86.5% | 363 ± 21.4 µM | > 500 µM | –
Cn1nnc2c(C(=O)NCCn3[se]c4ccc(Cl)cc4c3=O)ncn2c1=O [Compound 4, 3,4-dihydro-3-methyl-4-oxo-N-(3(2H)-oxo-5-chloro-1,2-benzisoselenazol-2-yl)-ethyl-imidazo[5,1-d]-1,2,3,5-tetrazine-8-carboxamide] | 134 ± 15.8 µM | 44.1 ± 6.09 µM | 5.6 ± 5.84 µM | 24.2 ± 11.9 µM | 73.5% | 75.2% | 74.5% | 68.8% | 74% | 80.6% | 84.3% | 84.7% | 81% | 126 ± 13.3 µM | > 500 µM | –
Cn1nnc2c(C(=O)NCCn3[se]c4ccc(Br)cc4c3=O)ncn2c1=O [Compound 5, 3,4-dihydro-3-methyl-4-oxo-N-(3(2H)-oxo-5-bromo-1,2-benzisoselenazol-2-yl)-ethyl-imidazo[5,1-d]-1,2,3,5-tetrazine-8-carboxamide] | 35.8 ± 6.27 µM | 14.4 ± 3.89 µM | 7.77 ± 3.28 µM | 4.41 ± 2.89 µM | 27.1% | 27% | 36.8% | 36.8% | 44.6% | 59.5% | 61.2% | 58.5% | 64.4% | 61.7 ± 5.79 µM | 56.2 ± 11.7 µM | –
COc1ccc2[se]n(CCNC(=O)c3ncn4c(=O)n(C)nnc34)c(=O)c2c1 [Compound 7, 3,4-dihydro-3-methyl-4-oxo-N-(3(2H)-oxo-5-methoxy-1,2-benzisoselenazol-2-yl)-ethyl-imidazo[5,1-d]-1,2,3,5-tetrazine-8-carboxamide] | 47 ± 2.88 µM | 21.2 ± 1.28 µM | 27 ± 3.22 µM | 15.7 ± 6.22 µM | 22% | 29.7% | 37.5% | 48% | 45.5% | 51.4% | 59.7% | 46.3% | 54.7% | 154 ± 5.64 µM | > 500 µM | –
Cn1nnc2c(C(N)=O)ncn2c1=O [TMZ, temozolomide, reference compound] | 373 ± 24.1 µM | > 500 µM | – | – | 36.7% | 58.9% | 38% | 38.1% | 24.4% | 63.9% | 54.3% | 51% | 54.5% | 431 ± 25.8 µM | > 500 µM | Tumor volume (human glioma cell U87 [7]): 209.18±57.83 mm^3; Tumor volume (human glioma cell U87 [7]; listed as Temozolomide): 209.18 ± 57.83*** mm^3; Tumor proliferation inhibition rate (human glioma cell U87 [7]): 62.75%; Tumor weight (human glioma cell U87 [7]): 0.29 ± 0.07 g; Tumor weight (human glioma cell U87 [7]; listed as Temozolomide): 0.29 ± 0.07 g; Tumor inhibition rate (human glioma cell U87 [8]; Day 1): 6.77%; Tumor inhibition rate (human glioma cell U87 [8]; Day 4): 38.14%; Tumor inhibition rate (human glioma cell U87 [8]; Day 7): 54.29%; Tumor inhibition rate (human glioma cell U87 [8]; Day 10): 46.23%; Tumor inhibition rate (human glioma cell U87 [8]; Day 14 (end of the experiment)): 14.26%
